Several values for one entry are separate records, joined by “and”; a condition that tells them apart may be missing. Equal entries are not always repeated.
O=C(C(F)(F)C(F)(F)F)C(F)(C(F)(F)F)C(F)(F)F [dodecafluoro-2-methylpentan-3-one]
Conditions | thermal conductivity
303.37 K, 4422 kPa, Liquid, transient hot wire | 0.05844 W/m/K
303.37 K, 4436 kPa, Liquid, transient hot wire | 0.05841 W/m/K
303.38 K, 22430 kPa, Liquid, transient hot wire | 0.06522 W/m/K
303.38 K, 22431 kPa, Liquid, transient hot wire | 0.06529 W/m/K
303.46 K, 36 kPa, Gas, transient hot wire | 0.01187 W/m/K
303.46 K, 38 kPa, Gas, transient hot wire | 0.01198 W/m/K
303.46 K, 91 kPa, Liquid, transient hot wire | 0.05636 W/m/K
303.46 K, 92 kPa, Liquid, transient hot wire | 0.05637 W/m/K
311.78 K, 60 kPa, Gas, transient hot wire | 0.01276 W/m/K
311.78 K, 63 kPa, Gas, transient hot wire | 0.01265 W/m/K
311.79 K, 63 kPa, Gas, transient hot wire | 0.01255 W/m/K
311.95 K, 34 kPa, Gas, transient hot wire | 0.01258 W/m/K
312.1 K, 61 kPa, Gas, transient hot wire | 0.01276 W/m/K
312.11 K, 63 kPa, Gas, transient hot wire | 0.0127 W/m/K
312.12 K, 63 kPa, Gas, transient hot wire | 0.01261 W/m/K
312.3 K, 34 kPa, Gas, transient hot wire | 0.01253 W/m/K
312.43 K, 61 kPa, Gas, transient hot wire | 0.01283 W/m/K
312.43 K, 63 kPa, Gas, transient hot wire | 0.01278 W/m/K
312.46 K, 63 kPa, Gas, transient hot wire | 0.01291 W/m/K
312.66 K, 34 kPa, Gas, transient hot wire | 0.01257 W/m/K
312.81 K, 61 kPa, Gas, transient hot wire | 0.01287 W/m/K
312.81 K, 63 kPa, Gas, transient hot wire | 0.01297 W/m/K
312.83 K, 63 kPa, Gas, transient hot wire | 0.01281 W/m/K
313.06 K, 34 kPa, Gas, transient hot wire | 0.01264 W/m/K
313.22 K, 61 kPa, Gas, transient hot wire | 0.01297 W/m/K
313.22 K, 63 kPa, Gas, transient hot wire | 0.01291 W/m/K
313.24 K, 63 kPa, Gas, transient hot wire | 0.01285 W/m/K
313.49 K, 34 kPa, Gas, transient hot wire | 0.01265 W/m/K
315 K, 42 kPa, Gas, hot wire | 0.01266 W/m/K and 0.01273 W/m/K
315.01 K, 24 kPa, Gas, hot wire | 0.01262 W/m/K and 0.01267 W/m/K
315.03 K, 68 kPa, Gas, hot wire | 0.01269 W/m/K
315.05 K, 69 kPa, Gas, hot wire | 0.01239 W/m/K
315.06 K, 73 kPa, Gas, hot wire | 0.01282 W/m/K
315.08 K, 73 kPa, Gas, hot wire | 0.0128 W/m/K
315.18 K, 42 kPa, Gas, hot wire | 0.0127 W/m/K
315.19 K, 24 kPa, Gas, hot wire | 0.01259 W/m/K
315.23 K, 68 kPa, Gas, hot wire | 0.01265 W/m/K
315.26 K, 68 kPa, Gas, hot wire | 0.01263 W/m/K
315.26 K, 73 kPa, Gas, hot wire | 0.01275 W/m/K and 0.01272 W/m/K
315.38 K, 24 kPa, Gas, hot wire | 0.01262 W/m/K
315.39 K, 24 kPa, Gas, hot wire | 0.01261 W/m/K
315.39 K, 42 kPa, Gas, hot wire | 0.01258 W/m/K and 0.0126 W/m/K
315.45 K, 73 kPa, Gas, hot wire | 0.01275 W/m/K and 0.01277 W/m/K
315.48 K, 67 kPa, Gas, hot wire | 0.01259 W/m/K
315.48 K, 68 kPa, Gas, hot wire | 0.01258 W/m/K
315.6 K, 24 kPa, Gas, hot wire | 0.01263 W/m/K
315.6 K, 42 kPa, Gas, hot wire | 0.01262 W/m/K
315.61 K, 41 kPa, Gas, hot wire | 0.01258 W/m/K
315.65 K, 73 kPa, Gas, hot wire | 0.01278 W/m/K
315.66 K, 73 kPa, Gas, hot wire | 0.01275 W/m/K
315.7 K, 67 kPa, Gas, hot wire | 0.01258 W/m/K and 0.01255 W/m/K
315.82 K, 24 kPa, Gas, hot wire | 0.01264 W/m/K and 0.01263 W/m/K
315.84 K, 41 kPa, Gas, hot wire | 0.01259 W/m/K
315.85 K, 42 kPa, Gas, hot wire | 0.01252 W/m/K
315.87 K, 73 kPa, Gas, hot wire | 0.01277 W/m/K and 0.01278 W/m/K
315.91 K, 67 kPa, Gas, hot wire | 0.01259 W/m/K
315.92 K, 67 kPa, Gas, hot wire | 0.01258 W/m/K
321.61 K, 79 kPa, Gas, transient hot wire | 0.01361 W/m/K
321.66 K, 65 kPa, Gas, transient hot wire | 0.01365 W/m/K
321.69 K, 64 kPa, Gas, transient hot wire | 0.01346 W/m/K
321.92 K, 78 kPa, Gas, transient hot wire | 0.01359 W/m/K
321.97 K, 66 kPa, Gas, transient hot wire | 0.01368 W/m/K
322.01 K, 64 kPa, Gas, transient hot wire | 0.01355 W/m/K
322.24 K, 77 kPa, Gas, transient hot wire | 0.01349 W/m/K
322.3 K, 66 kPa, Gas, transient hot wire | 0.01358 W/m/K
322.35 K, 64 kPa, Gas, transient hot wire | 0.01367 W/m/K
322.6 K, 77 kPa, Gas, transient hot wire | 0.0137 W/m/K
322.68 K, 66 kPa, Gas, transient hot wire | 0.01369 W/m/K
322.7 K, 62 kPa, Gas, transient hot wire | 0.01363 W/m/K
322.99 K, 77 kPa, Gas, transient hot wire | 0.01375 W/m/K
323.07 K, 66 kPa, Gas, transient hot wire | 0.01363 W/m/K
323.09 K, 62 kPa, Gas, transient hot wire | 0.0139 W/m/K
329.07 K, 105 kPa, Gas, hot wire | 0.01379 W/m/K and 0.0138 W/m/K
329.1 K, 72 kPa, Gas, hot wire | 0.01387 W/m/K
329.1 K, 73 kPa, Gas, hot wire | 0.01371 W/m/K and 0.01367 W/m/K
329.12 K, 72 kPa, Gas, hot wire | 0.01364 W/m/K
329.19 K, 27 kPa, Gas, hot wire | 0.01341 W/m/K
329.19 K, 120 kPa, Gas, hot wire | 0.01389 W/m/K
329.2 K, 26 kPa, Gas, hot wire | 0.01335 W/m/K
329.21 K, 120 kPa, Gas, hot wire | 0.01385 W/m/K
329.22 K, 27 kPa, Gas, hot wire | 0.01411 W/m/K
329.23 K, 26 kPa, Gas, hot wire | 0.014 W/m/K
329.23 K, 105 kPa, Gas, hot wire | 0.01384 W/m/K and 0.01389 W/m/K
329.25 K, 72 kPa, Gas, hot wire | 0.01368 W/m/K
